From patent publication US20220002279A1, “NOVEL IMIDAZOLE DERIVATIVE” (priority 2018, published 2022)
In brackets after ≈: the same amount, converted by molar mass.

Tests used:
Experiment in all cases: Antimicrobial activity, MIC by broth microdilution
Assay type in all cases: cell-based
[1] = tested on: Klebsiella pneumoniae strain ATCC13883; settings: ATCC13883, cation-adjusted Mueller-Hinton broth, about 5×10^5 CFU/mL, 35° C., about 18 hours, read-out: MIC Klebsiella pneumoniae ATCC13883
Text: (§1) Test Example 4 Evaluation of the Antimicrobial Activity
(§2) For minimum inhibitory concentration (MIC) measurement, the following broth microdilution method was applied as adapted from the standard procedure recommended by the CLSI (Clinical and Laboratory Standards Institute).
(§3) The bacteria used were Pseudomonas aeruginosa strain ATCC27853, Escherichia coli strain ATCC25922, and Klebsiella pneumoniae strain ATCC13883. After culture overnight on a heart infusion agar medium, the cells of a test bacterium were scraped off, and a bacterial solution suspended to have a turbidity of level 0.5 on the McFarland scale was diluted and used as an inoculum solution. The inoculum solution was inoculated in a cation-adjusted Mueller-Hinton broth medium containing a test compound so that the final inoculation concentration was about 5×10^5 CFU/mL, and cultured at 35° C. for about 18 hours. A minimum drug concentration at which no cell growth was visible to the naked eye was designated as MIC. […] In the table, ND represents the case where suppression of the cell growth in a drug concentration-dependent manner was not observed (Not Determined), and NT represents that no test was conducted (Not Tested).

[2] = tested on: Pseudomonas aeruginosa strain ATCC27853; settings: ATCC27853, 18 h, cation-adjusted Mueller-Hinton broth, about 5×10^5 CFU/mL, 35° C., about 18 hours, read-out: MIC Pseudomonas aeruginosa ATCC27853
Text: as §1, §2, §3

[3] = tested on: Escherichia coli strain ATCC25922; settings: ATCC25922, 18 h, cation-adjusted Mueller-Hinton broth, about 5×10^5 CFU/mL, 35° C., about 18 hours, read-out: MIC Escherichia coli ATCC25922
Text: as §1, §2, §3

SMILES | MIC [1] [µg/mL] | MIC [2] [µg/mL] | MIC [3] [µg/mL]
C[C@H](O)c1nccn1Cc1cc(-c2ccc(C#C[C@H]3C[C@H](N)C3)cc2)on1 [Compound 23, (1S)-1-{1-[(5-(4-[(trans-3-aminocyclobutyl)ethynyl]phenyl}-1,2-oxazol-3-yl)methyl]-1H-imidazol-2-yl}ethan-1-ol] | 8 (≈ 22.1 µM) | 16 (≈ 44.1 µM) | 4 (≈ 11 µM)
C[C@H](O)c1nccn1Cc1cc(-c2ccc(C#CCN)cc2)on1 [Compound 30, (1S)-1-[l-({5-[4-(3-aminoprop-1-yn-1-yl)phenyl]-1,2-oxazol-3-yl}methyl)-1H-imidazol-2-yl]ethan-1-ol] | > 128 | 64 (≈ 199 µM) | 64 (≈ 199 µM)
C[C@H](O)c1nccn1Cc1cc(-c2ccc(C#C[C@H]3C[C@H](O)C3)cc2)on1 [Compound 54, trans-3-({4-[3-({2-[(1S)-1-Hydroxyethyl]-1H-imidazol-1-yl}methyl)-1,2-oxazol-5-yl]phenyl}ethynyl)cyclobutan-1-ol] | 0.25 (≈ 0.688 µM) | 16 (≈ 44 µM) | 0.12 (≈ 0.33 µM)
C[C@H](O)c1nccn1Cc1cc(-c2ccc(C#C[C@@H]3[C@H]4CN(CCCC(=O)O)C[C@@H]34)cc2)on1 [Compound 67, 4-[(1R,5S,6s)-6-({4-[3-({2-[(1S)-1-Hydroxyethyl]-1H-imidazol-1-yl}methyl)-1,2-oxazol-5-yl]phenyl}ethynyl)-3-azabicyclo[3.1.0]hexan-3-yl]butanoic acid] | 4 (≈ 8.69 µM) | 8 (≈ 17.4 µM) | 2 (≈ 4.34 µM)
C[C@H](O)c1nccn1[C@H](CN)c1cc(-c2ccc(C#CC3CCOC3)cc2)on1 (stereo partly drawn) [Compound 75, (1S)-1-{1-[(1R)-2-amino-1-(5-{4-[(oxolan-3-yl)ethynyl]phenyl}-1,2-oxazol-3-yl)ethyl]-1H-imidazol-2-yl} ethan-1-ol] | 2 (≈ 5.1 µM) | 64 (≈ 163 µM) | 0.25 (≈ 0.637 µM)
C[C@H](O)c1nccn1Cc1cc(-c2ccc(C#C[C@H]3C[C@@H](O)C3)cc2)on1 [Compound 88, cis-3-({4-[3-((2-[(1S)-1-Hydroxyethyl]-1H-imidazol-1-yl}methyl)-1,2-oxazol-5-yl]phenyl}ethynyl)cyclobutan-1-ol] | 0.25 (≈ 0.688 µM) | 16 (≈ 44 µM) | 0.12 (≈ 0.33 µM)
C[C@H](O)c1nccn1[C@H](CN)c1cc(-c2ccc(C#C[C@H]3C[C@@](O)(CO)C3)cc2)on1 [Compound 89, trans-3-[(4-(3-[(1R)-2-Amino-1-{2-[(1S)-1-hydroxyethyl]-1H-imidazol-1-yl}ethyl]-1,2-oxazol-5-yl}phenyl)ethynyl]-1-(hydroxymethyl)cyclobutan-1-ol] | 8 (≈ 18.9 µM) | 4 (≈ 9.47 µM) | 2 (≈ 4.73 µM)
C[C@H](O)c1nccn1[C@H](CN)c1cc(-c2ccc(C#C[C@H]3C[C@](O)(CO)C3)cc2)on1 [Compound 90, cis-3-[(4-{3-[(1R)-2-amino-1-{2-[(1S)-1-hydroxyethyl]-1H-imidazol-1-yl}ethyl]-1,2-oxazol-5-yl}phenyl)ethynyl]-1-(hydroxymethyl)cyclobutan-1-ol] | 8 (≈ 18.9 µM) | 4 (≈ 9.47 µM) | 4 (≈ 9.47 µM)
C[C@H](O)c1nccn1[C@H](CN)c1cc(-c2ccc(C#C[C@H]3C[C@H](O)C3)cc2)no1 [Compound 100, trans-3-[(4-{5-[(1R)-2-amino-1-{2-[(1S)-1-hydroxyethyl]-1H-imidazol-1-yl}ethyl]-1,2-oxazol-3-yl}phenyl)ethynyl]cyclobutan-1-ol] | 4 (≈ 10.2 µM) |  | 
C[C@H](O)c1nccn1[C@H](CN)c1cc(-c2ccc(C#C[C@H]3C[C@H](NC=O)C3)cc2)on1 [Compound 106, N-{trans-3-[(4-{3-[(1R)-2-amino-1-(2-[(1S)-1-hydroxyethyl]-1H-imidazol-1-yl}ethyl]-1,2-oxazol-5-yl}phenyl)ethynyl]cyclobutyl}formamide] | 4 (≈ 9.54 µM) | 8 (≈ 19.1 µM) | 2 (≈ 4.77 µM)
CC(=O)N[C@H]1C[C@H](C#Cc2ccc(-c3cc([C@@H](CN)n4ccnc4[C@H](C)O)no3)cc2)C1 [Compound 115, N-{trans-3-[(4-{3-[(1R)-2-amino-1-{2-[(1S)-1-hydroxyethyl]-1H-imidazol-1-yl}ethyl]-1,2-oxazol-5-yl}phenyl)ethynyl]cyclobutyl} acetamide] | 8 (≈ 18.5 µM) | 16 (≈ 36.9 µM) | 4 (≈ 9.23 µM)
C[C@H](O)c1nccn1[C@H](CN)c1cc(-c2ccc(C#C[C@H]3C[C@H](NCCO)C3)cc2)on1 [Compound 134, (1S)-1-{1-[(1R)-2-amino-1-{5-[4-({trans-3-[(2-hydroxyethyl)amino]cyclobutyl}ethynyl)phenyl]-1,2-oxazol-3-yl}ethyl]-1H-imidazol-2-yl}ethan-1-ol] | 32 (≈ 73.5 µM) | 4 (≈ 9.18 µM) | 

Other lines, results leading:

MIC [1] [µg/mL] | MIC [2] [µg/mL] | MIC [3] [µg/mL] | SMILES
 | 4 (≈ 8.67 µM) | 2 (≈ 4.33 µM) | CNC[C@H](c1cc(-c2ccc(C#C[C@@H]3[C@H]4CN(CCO)C[C@@H]34)cc2)on1)n1ccnc1[C@H](C)O [Compound 38, (1S)-1-{1-[(1R)-1-[5-(4-{[(1R,5S,6s)-3-(2-Hydroxyethyl)-3-azabicyclo[3.1.0]hexan-6-yl]ethynyl}phenyl)-1,2-oxazol-3-yl]-2-(methylamino)ethyl]-1H-imidazol-2-yl}ethan-1-ol]
 | 8 (≈ 19.8 µM) |  | C[C@H](O)c1nccn1[C@H](CN)c1cc(-c2ccc(C#CC3C4COCC34)cc2)on1 (stereo partly drawn) [Compound 58, (1S)-1-{1-[(1R)-2-amino-1-(5-{4-[(3-oxabicyclo[3.1.0]hexan-6-yl)ethynyl]phenyl}-1,2-oxazol-3-yl)ethyl]-1H-imidazol-2-yl} ethan-1-ol]
0.25 (≈ 0.69 µM) | 8 (≈ 22.1 µM) | 0.25 (≈ 0.69 µM) | C[C@H](O)c1nccn1[C@H](CN)c1cc(-c2ccc(C#CC3CC3)cc2)on1 [Compound 60, (1S)-1-{1-[(1R)-2-amino-1-(5-[4-(cyclopropylethynyl)phenyl]-1,2-oxazol-3-yl}ethyl]-1H-imidazol-2-yl}ethan-1-ol]
8 (≈ 18 µM) | 32 (≈ 71.8 µM) |  | CC(=O)N1C[C@@H]2[C@@H](C#Cc3ccc(-c4cc([C@@H](CN)n5ccnc5[C@H](C)O)no4)cc3)[C@@H]2C1 [Compound 91, 1-{(1R,5S,6s)-6-[(4-{3-[(1R)-2-Amino-1-{2-[(1S)-1-hydroxyethyl]-1H-imidazol-1-yl}ethyl]-1,2-oxazol-5-yl}phenyl)ethynyl]-3-azabicyclo[3.1.0]hexan-3-yl}ethan-1-one]
1 (≈ 2.17 µM) | 2 (≈ 4.33 µM) | 0.5 (≈ 1.08 µM) | COCCN1C[C@@H]2[C@@H](C#Cc3ccc(-c4cc([C@@H](CN)n5ccnc5[C@H](C)O)no4)cc3)[C@@H]2C1 [Compound 101, (1S)-1-(1-{(1R)-2-Amino-1-[5-(4-{[(1R,5S,6s)-3-(2-methoxyethyl)-3-azabicyclo[3.1.0]hexan-6-yl]ethynyl}phenyl)-1,2-oxazol-3-yl]ethyl}-1H-imidazol-2-yl)ethan-1-ol]
16 (≈ 32.7 µM) | 4 (≈ 8.17 µM) | 4 (≈ 8.17 µM) | C[C@H](O)c1nccn1[C@H](CN)c1cc(-c2ccc(C#C[C@@H]3[C@H]4CN(CCCC(=O)O)C[C@@H]34)cc2)on1 [Compound 113, 4-{(1R,5S,6s)-6-[(4-{3-[(1R)-2-amino-1-{2-[(1S)-1-hydroxyethyl]-1H-imidazol-1-yl}ethyl]-1,2-oxazol-5-yl}phenyl)ethynyl]-3-azabicyclo[3.1.0]hexan-3-yl}butanoic acid]
2 (≈ 4.64 µM) | 8 (≈ 18.5 µM) | 1 (≈ 2.32 µM) | C[C@H](O)c1nccn1[C@H](CN)c1cc(-c2ccc(C#C[C@@H]3[C@H]4CN(C=O)C[C@@H]34)cc2)on1 [Compound 117, (1R,5S,6s)-6-[(4-{3-[(1R)-2-amino-1-{2-[(1S)-1-hydroxyethyl]-1H-imidazol-1-yl}ethyl]-1,2-oxazol-5-yl}phenyl)ethynyl]-3-azabicyclo[3.1.0]hexane-3-carbaldehyde]
0.5 (≈ 1.08 µM) | 4 (≈ 8.67 µM) | 0.25 (≈ 0.542 µM) | COC(=O)N1C[C@@H]2[C@@H](C#Cc3ccc(-c4cc([C@@H](CN)n5ccnc5[C@H](C)O)no4)cc3)[C@@H]2C1 [Compound 118, methyl (1R,5S,6s)-6-[(4-{3-[(1R)-2-amino-1-{2-[(1S)-1-hydroxyethyl]-1H-imidazol-1-yl}ethyl]-1,2-oxazol-5-yl}phenyl)ethynyl]-3-azabicyclo[3.1.0]hexane-3-carboxylate]
32 (≈ 76.1 µM) | 8 (≈ 19 µM) |  | C[C@H](O)c1nccn1[C@H](CN)c1cc(-c2ccc(C#CC3CC(C(=O)O)C3)cc2)on1 (stereo partly drawn) [Compound 130, 3-[(4-{3-{(1R)-2-amino-1-(2-[(1S)-1-hydroxyethyl]-1H-imidazol-1-yl}ethyl]-1,2-oxazol-5-yl}phenyl)ethynyl]cyclobutane-1-carboxylate]
4 (≈ 8.67 µM) | 4 (≈ 8.67 µM) |  | C[C@H](O)c1nccn1[C@H](CN)c1cc(-c2ccc(C#C[C@@H]3[C@H]4CN(C[C@@H](C)O)C[C@@H]34)cc2)on1 [Compound 137, (R)-1-((1R,5S,6R)-6-((4-(3-((R)-2-amino-1-(2-((S)-1-hydroxyethyl)-1H-imidazol-1-yl)ethyl)isoxazol-5-yl)phenyl)ethynyl)-3-azabicyclo[3.1.0]hexan-3-yl)propan-2-ol]
